Test results: patent US20080027143A1, “CHEMICAL FORMULATION FOR AN INSECTICIDE” (priority 2006, published 2008)

Columns and labels:
Assay type in all cases: physicochemical
[1] = Storage stability of insecticide in solvent
From the text: Stability data determined using analytical tools are given below:

Viscosity of solvent = details: at 25 deg. C.
Procedure: Referring again to Table 5, release rates of 8.0 wt %/wt % Transfluthrin in solvent are strongly correlated to viscosity of solvent. A solvent viscosity of less than or substantially equal to about 4 centistokes (cSt) at 25 Celsius is preferred as release rates stay above 5 mg/hr. Release rates lower than 5 mg/hr require much higher concentration of insecticide (higher insecticidal concentrations lead to thickening of the formula which may become unacceptable to delivery via piezoelectric delivery systems). A solvent viscosity of less than or substantially equal to about 3 cSt is more preferred as this enables the insecticidal concentration(s) to be kept below 10%.

[2] = Release rates over 14 days for solvents with different boiling point ranges (Table 7)
From the text: The effect of solvents with different boiling point ranges on release rates were studied and the results are show in the following Table 7: [table]

[3] = Release rate and evaporation loss from piezoelectric diffusion device (Table 5); details: for Evaporation Loss: OFF switch position, average of 30 hours; for Evaporation Loss / Release Rate in High Setting: 3 repetitions; for Release Rate in High Setting: ON, high switch setting, average of 13 hours
From the text: A highly permeable wick is used in the diffusion device 20 to ensure easy and effective transfer of the liquid from the tip of the wick to the orifice plate 110. In addition, the plug and wick holder 72 that is fitted to the reservoir 50 includes two small orifices to enable equilibration of pressure between the headspace in the reservoir and the surrounding atmosphere. These design factors lead to slow evaporation of the solvent regardless of where the device 20 is switched on or off. Solvents with high volatility tend to evaporate more rapidly leading to concentration of the insecticide in the reservoir 50. This increases the viscosity of the formula and slows down the overall release rates, leading to a negative impact on product performance. […] [table]

[4] = With 8.0 wt %/wt % Transfluthrin in Solvent

Viscosity of Solvent (Viscosity of solvent) [cSt] | Residual Liquid ([2]; after the 14 days) | Average Release Rate during 1–5 days ([2]; high setting, average period of 7.1 hours per day, days 1–5) [mg/h] | Average Release Rate during 6–10 days ([2]; high setting, average period of 7.1 hours per day, days 6–10) [mg/h] | Average Release Rate during 11–14 days ([2]; high setting, average period of 7.1 hours per day, days 11–14) [mg/h] | Evaporation Loss as Percent of Release Rate [3, 4] [%] | Evaporation Loss [3, 4] [mg/h] | Release Rate in High Setting [3, 4] [mg/h] | Evaporation Loss as Percent of Release Rate ([3]; With Pure Solvent) [%] | Evaporation Loss ([3]; With Pure Solvent) [mg/h] | Release Rate in High Setting ([3]; With Pure Solvent) [mg/h] | Compound | Stability in hydrocarbon solvents (conclusion) [1]
– | – | – | – | – | – | – | – | – | – | – | C/C=C/C1C(C(=O)OCc2c(F)c(F)c(COC)c(F)c2F)C1(C)C (stereo not shown) [Metofluthrin] | stable
– | – | – | – | – | – | – | – | – | – | – | CC1(C)[C@H](C=C(Cl)Cl)[C@H]1C(=O)OCc1c(F)c(F)cc(F)c1F [Transfluthrin] | stable
2.7 | Zero | 19.1 | 18.0 | 10.0 | 73.1 | 16.05 | 22.0 | 38.4 | 9.73 | 25.3 | CCCOCC(C)O (stereo not shown) [DOWANOL ® PnP] | –
